In patent US10597388B2, “Pyridazinone herbicides” (FMC CORPORATION, priority 2014, dated 2020):

Experiments:
Experiment in all cases: Test C greenhouse herbicide test, pre- and postemergence
Format in all cases: in vivo
[1] = tested on: barnyardgrass (Echinochloa crus-galli)
Text: (§1) Seeds of plant species selected from blackgrass (Alopecurus myosuroides), ryegrass, Italian (Italian ryegrass, Lolium multiflorum), wheat (winter wheat, Triticum aestivum), galium (catchweed bedstraw, Galium aparine), corn (Zea mays), large crabgrass, large (large crabgrass, Digitaria sanguinalis), foxtail, giant (giant foxtail, Setaria faberii), johnsongrass (Sorghum halepense), lambsquarters (Chenopodium album), morningglory (Ipomoea coccinea), nutsedge, yellow (yellow nutsedge, Cyperus esculentus), pigweed (Amaranthus retroflexus), ragweed (common ragweed, Ambrosia elatior), soybean (Glycine max), barnyardgrass (Echinochloa crus-galli), oilseed rape (Brassica napus), waterhemp (common waterhemp, Amaranthus rudis), and velvetleaf (Abutilon theophrasti) were planted into a blend of loam soil and sand and treated preemergence with test chemicals formulated in a non-phytotoxic solvent mixture which included a surfactant.
(§2) At the same time, plants selected from these crop and weed species and also chickweed (common chickweed, Stellaria media), kochia (Kochia scoparia), and oat, wild (wild oat, Avena fatua), were planted in pots containing Redi-Earth® planting medium (Scotts Company, 14111 Scottslawn Road, Marysville, Ohio 43041) comprising spaghnum peat moss, vermiculite, wetting agent and starter nutrients and treated with postemergence applications of test chemicals formulated in the same manner. Plants ranged in height from 2 to 18 cm (1- to 4-leaf stage) for postemergence treatments. Treated plants and controls were maintained in a greenhouse for 13 to 15 d, after which time all species were compared to controls and visually evaluated. Plant response ratings, summarized in Table C, are based on a scale of 0 to 100 where 0 is no effect and 100 is complete control. A dash (-) response means no test result.

[2] = tested on: blackgrass (Alopecurus myosuroides)
Text: as §1, §2

corn (Zea mays) = tested on: corn (Zea mays)
Text: as §1, §2

[3] = tested on: crabgrass, large (large crabgrass, Digitaria sanguinalis)
Text: as §1, §2

[4] = tested on: johnsongrass (Sorghum halepense)
Text: as §1, §2

[5] = tested on: lambsquarters (Chenopodium album)
Text: as §1, §2

[6] = tested on: morningglory (Ipomoea coccinea)
Text: as §1, §2

[7] = tested on: nutsedge, yellow (yellow nutsedge, Cyperus esculentus)
Text: as §1, §2

[8] = tested on: pigweed (Amaranthus retroflexus)
Text: as §1, §2

[9] = tested on: ragweed (common ragweed, Ambrosia elatior)
Text: as §1, §2

[10] = tested on: ryegrass, Italian (Italian ryegrass, Lolium multiflorum)
Text: as §1, §2

soybean (Glycine max) = tested on: soybean (Glycine max)
Text: as §1, §2

[11] = tested on: velvetleaf (Abutilon theophrasti)
Text: as §1, §2

[12] = tested on: waterhemp (common waterhemp, Amaranthus rudis)
Text: as §1, §2

[13] = tested on: wheat (winter wheat, Triticum aestivum)
Text: as §1, §2

[14] = Postemergence, 31 g ai/ha, 0 to 100 scale (0 no effect, 100 complete control)
[15] = Postemergence, 125 g ai/ha, scale 0 to 100, 0 is no effect, 100 is complete control
[16] = Postemergence, 250 g ai/ha, scale 0 to 100, 0 no effect, 100 complete control, 13 to 15 d
[17] = Preemergence, 31 g ai/ha, scale 0 to 100, 0 is no effect, 100 is complete control
[18] = Preemergence, 62 g ai/ha, scale 0 to 100, 0 is no effect, 100 is complete control
[19] = Preemergence, 125 g ai/ha, scale 0 to 100, 0 is no effect, 100 is complete control
[20] = Preemergence, 250 g ai/ha, scale 0 to 100, 0 no effect, 100 complete control
[21] = postemergence, 62 g ai/ha, scale 0 to 100, 0 no effect, 100 complete control

Cc1nn(C)c(=O)c(-c2ccc(Br)c3ccccc23)c1O [Compound 75]
Barnyardgrass plant response rating [1, 14]: 25 | Plant response rating, Barnyardgrass [1, 15]: 15 | Plant response rating, Barnyardgrass [1, 16]: 20 | Plant response rating, Barnyardgrass [1, 17]: 5 | Plant response rating, Barnyardgrass [1, 18]: 25 | Plant response rating, Barnyardgrass [1, 19]: 50 | Barnyardgrass plant response rating [1, 20]: 85 | Barnyardgrass plant response rating [1, 21]: 25 | Blackgrass plant response rating [2, 14]: 5 | Plant response rating, Blackgrass [2, 15]: 20 | Plant response rating, Blackgrass [2, 16]: 35 | Plant response rating, Blackgrass [2, 17]: 20 | Plant response rating, Blackgrass [2, 18]: 30 | Plant response rating, Blackgrass [2, 19]: 30 | Blackgrass plant response rating [2, 20]: 30 | Blackgrass plant response rating [2, 21]: 5 | Corn plant response rating (corn (Zea mays); [14]): 5 | Plant response rating, Corn (corn (Zea mays); [15]): 10 | Plant response rating, Corn (corn (Zea mays); [16]): 10 | Plant response rating, Corn (corn (Zea mays); [17]): 0 | Plant response rating, Corn (corn (Zea mays); [18]): 5 | Plant response rating, Corn (corn (Zea mays); [19]): 0 | Corn plant response rating (corn (Zea mays); [20]): 10 | Corn plant response rating (corn (Zea mays); [21]): 5 | Crabgrass, Large plant response rating [3, 14]: 5 | Plant response rating, Crabgrass, Large [3, 15]: 5 | Plant response rating, Crabgrass, Large [3, 16]: 20 | Plant response rating, Crabgrass, Large [3, 17]: 75 | Plant response rating, Crabgrass, Large [3, 18]: 10 | Plant response rating, Crabgrass, Large [3, 19]: 25 | Crabgrass, Large plant response rating [3, 20]: 50 | Crabgrass, Large plant response rating [3, 21]: 10 | Johnsongrass plant response rating [4, 14]: 5 | Plant response rating, Johnsongrass [4, 15]: 5 | Plant response rating, Johnsongrass [4, 16]: 10 | Plant response rating, Johnsongrass [4, 17]: 0 | Plant response rating, Johnsongrass [4, 18]: 20 | Plant response rating, Johnsongrass [4, 19]: 20 | Johnsongrass plant response rating [4, 20]: 10 | Johnsongrass plant response rating [4, 21]: 5 | Lambsquarters plant response rating [5, 14]: 100 | Plant response rating, Lambsquarters [5, 15]: 100 | Plant response rating, Lambsquarters [5, 16]: 100 | Plant response rating, Lambsquarters [5, 17]: 65 | Plant response rating, Lambsquarters [5, 18]: 100 | Plant response rating, Lambsquarters [5, 19]: 85 | Lambsquarters plant response rating [5, 20]: 90 | Lambsquarters plant response rating [5, 21]: 100 | Morningglory plant response rating [6, 14]: 98 | Plant response rating, Morningglory [6, 15]: 100 | Plant response rating, Morningglory [6, 16]: 75 | Plant response rating, Morningglory [6, 17]: 70 | Plant response rating, Morningglory [6, 18]: 85 | Plant response rating, Morningglory [6, 19]: 95 | Morningglory plant response rating [6, 20]: 100 | Morningglory plant response rating [6, 21]: 100 | Nutsedge, Yellow plant response rating [7, 14]: 25 | Plant response rating, Nutsedge, Yellow [7, 15]: 50 | Plant response rating, Nutsedge, Yellow [7, 16]: 70 | Plant response rating, Nutsedge, Yellow [7, 17]: 15 | Plant response rating, Nutsedge, Yellow [7, 18]: 40 | Plant response rating, Nutsedge, Yellow [7, 19]: 65 | Nutsedge, Yellow plant response rating [7, 20]: 75 | Nutsedge, Yellow plant response rating [7, 21]: 20 | Pigweed plant response rating [8, 14]: 85 | Plant response rating, Pigweed [8, 15]: 100 | Plant response rating, Pigweed [8, 16]: 98 | Plant response rating, Pigweed [8, 17]: 85 | Plant response rating, Pigweed [8, 18]: 100 | Plant response rating, Pigweed [8, 19]: 100 | Pigweed plant response rating [8, 20]: 100 | Pigweed plant response rating [8, 21]: 95 | Ragweed plant response rating [9, 14]: 95 | Plant response rating, Ragweed [9, 15]: 100 | Plant response rating, Ragweed [9, 16]: 100 | Plant response rating, Ragweed [9, 17]: 80 | Plant response rating, Ragweed [9, 18]: 85 | Plant response rating, Ragweed [9, 19]: 90 | Ragweed plant response rating [9, 20]: 100 | Ragweed plant response rating [9, 21]: 85 | Ryegrass, Italian plant response rating [10, 14]: 80 | Plant response rating, Ryegrass, Italian [10, 15]: 85 | Plant response rating, Ryegrass, Italian [10, 16]: 85 | Plant response rating, Ryegrass, Italian [10, 17]: 90 | Plant response rating, Ryegrass, Italian [10, 18]: 90 | Plant response rating, Ryegrass, Italian [10, 19]: 90 | Ryegrass, Italian plant response rating [10, 20]: 90 | Ryegrass, Italian plant response rating [10, 21]: 80 | Soybean plant response rating (soybean (Glycine max); [14]): 20 | Plant response rating, Soybean (soybean (Glycine max); [15]): 35 | Plant response rating, Soybean (soybean (Glycine max); [16]): 10 | Plant response rating, Soybean (soybean (Glycine max); [17]): 0 | Plant response rating, Soybean (soybean (Glycine max); [18]): 20 | Plant response rating, Soybean (soybean (Glycine max); [19]): 45 | Soybean plant response rating (soybean (Glycine max); [20]): 55 | Soybean plant response rating (soybean (Glycine max); [21]): 35 | Velvetleaf plant response rating [11, 14]: 70 | Plant response rating, Velvetleaf [11, 15]: 85 | Plant response rating, Velvetleaf [11, 16]: 85 | Plant response rating, Velvetleaf [11, 17]: 35 | Plant response rating, Velvetleaf [11, 18]: 85 | Plant response rating, Velvetleaf [11, 19]: 90 | Velvetleaf plant response rating [11, 20]: 98 | Velvetleaf plant response rating [11, 21]: 50 | Waterhemp plant response rating [12, 14]: 100 | Plant response rating, Waterhemp [12, 15]: 100 | Plant response rating, Waterhemp [12, 16]: 100 | Plant response rating, Waterhemp [12, 17]: 100 | Plant response rating, Waterhemp [12, 18]: 100 | Plant response rating, Waterhemp [12, 19]: 100 | Waterhemp plant response rating [12, 20]: 100 | Waterhemp plant response rating [12, 21]: 100 | Wheat plant response rating [13, 14]: 0 | Plant response rating, Wheat [13, 15]: 0 | Plant response rating, Wheat [13, 16]: 0 | Plant response rating, Wheat [13, 17]: 0 | Plant response rating, Wheat [13, 18]: 0 | Plant response rating, Wheat [13, 19]: 10 | Wheat plant response rating [13, 20]: 5 | Wheat plant response rating [13, 21]: 0
